# Data published in US20240261272A1, “LPA1 ANTAGONISTS FOR TREATING INTERSTITIAL LUNG DISEASE” (Bristol-Myers Squibb Company, priority 2022, published 2024).
# Assay: Phase 1 Part A single ascending dose (SAD) study in healthy participants: safety, blood pressure
# Format: in vivo, human
# Set-up: Mean DBP: unit not given here
# Protocol: The study was performed in 3 parts in 112 healthy male and female participants, including 24 Japanese participants. Female participants were to be not of childbearing potential. The present study was designed to evaluate the safety and tolerability, PK, and exploratory PD of an oral suspension of Compound A. Parts A and B (Cohort B1 only) enrolled healthy participants and was conducted at a site in The Netherlands and Part B (Cohort B2 to B5) enrolled healthy non-Japanese participants and was conducted at a site in the United Kingdom (UK). Part C enrolled healthy Japanese participants and was conducted at the same site in the UK.
# Part A was an SAD study in a planned number of 6 sequential dose escalation cohorts (3, 10, 30, 100, 150, or 250 mg) of 8 healthy participants (6 active+2 placebo) each, under fasted conditions. Eligible participants in Part A (excluding those in Cohort A7 [food effect (FE)/pH cohort]) received a single administration of study drug (Compound A or placebo) under fasted conditions. In Cohort A1 to Cohort A6, sentinel dosing was employed (1 active+1 placebo, followed after 48 hours by the remaining participants of the cohort [5 active+1 placebo]). […] In addition to the 6 ascending dose cohorts, a cohort of 6 healthy participants (Cohort A7; 6 active, 100 mg Compound A) was included to assess the effect of food and pH on the bioavailability of Compound A in a 3-period, open-label, fixed-sequence, crossover design (FE/pH cohort).
# Physical examinations, vital sign measurements (including orthostasis testing in Cohort A6, Cohort B3 to B5, and C1 to C3 at selected time points), 12-lead electrocardiogram (ECG), and clinical laboratory evaluations were performed at selected times throughout the study. In addition, Holter monitoring was performed for the first 24 hours post dose on Day 1 in Part A (not in FE/pH cohort), and also for the first 24 hours post dose on Day 1 and Day 14 in Parts B and C. Participants were closely monitored for adverse events (AEs). Blood samples were collected for up to 14 days (follow-up visit) after (last) study drug administration for PK analysis. In addition, blood and urine were collected for exploratory biomarker assessments and for biobanking of samples for potential analyses. Urine was collected for potential PK analysis for up to 96 hours after a single dose of Compound A or placebo was administered in the SAD part, and for up to 24 hours after the first (morning) dose of study drug on Day 1 and for up to 24 hours after the last (morning) dose of study drug on Day 14 in the MAD parts.
smiles,measurement,setting,value
"CCCN(C)C(=O)OCc1c(-c2ccc(O[C@H]3CCC[C@H](C(=O)O)C3)c(C)n2)nnn1C [Compound A, (1S,3S)-3-((2-methyl-6-(1-methyl-5-(((methyl(propyl)carbamoyl)-oxy)methyl)-1H-1,2,3-triazol-4-yl)pyridin-3-yl)oxy)cyclohexane-1-carboxylic acid]",Mean DBP,"100 mg Fasted + Famotidine, D 1 2 h",67.2
same,Mean DBP,"100 mg Fasted + Famotidine, D 1 4 h",65.3
same,Mean DBP,"100 mg Fasted + Famotidine, D 1 8 h",63.2
same,Mean DBP,"100 mg Fasted + Famotidine, D 2 24 h",71.7
same,Mean DBP,"100 mg Fasted, D 1 2 h",67.2
same,Mean DBP,"100 mg Fasted, D 1 4 h",64.2
same,Mean DBP,"100 mg Fasted, D 1 8 h",63.0
same,Mean DBP,"100 mg Fasted, D 2 24 h",69.3
same,Mean DBP,"100 mg Fed, D 1 2 h",57.2
same,Mean DBP,"100 mg Fed, D 1 4 h",58.2
same,Mean DBP,"100 mg Fed, D 1 8 h",58.8
same,Mean DBP,"100 mg Fed, D 2 24 h",69.3
same,Mean DBP,"SAD 3 mg, D 1 2 h",68.3
same,Mean DBP,"SAD 3 mg, D 1 4 h",69.5
same,Mean DBP,"SAD 3 mg, D 1 8 h",68.0
same,Mean DBP,"SAD 3 mg, D 2 24 h",68.7
same,Mean DBP,"SAD 10 mg, D 1 2 h",67.7
same,Mean DBP,"SAD 10 mg, D 1 4 h",68.7
same,Mean DBP,"SAD 10 mg, D 1 8 h",63.0
same,Mean DBP,"SAD 10 mg, D 2 24 h",71.7
same,Mean DBP,"SAD 30 mg, D 1 2 h",66.2
same,Mean DBP,"SAD 30 mg, D 1 4 h",65.2
same,Mean DBP,"SAD 30 mg, D 1 8 h",65.2
same,Mean DBP,"SAD 30 mg, D 2 24 h",71.0
same,Mean DBP,"SAD 100 mg, D 1 2 h",59.0
same,Mean DBP,"SAD 100 mg, D 1 4 h",58.7
same,Mean DBP,"SAD 100 mg, D 1 8 h",56.3
same,Mean DBP,"SAD 100 mg, D 2 24 h",66.0
same,Mean DBP,"SAD 150 mg, D 1 2 h",58.2
same,Mean DBP,"SAD 150 mg, D 1 4 h",56.0
same,Mean DBP,"SAD 150 mg, D 1 8 h",57.8
same,Mean DBP,"SAD 150 mg, D 2 24 h",66.2
same,dose-limiting events (in words),"SAD Cohort A6, 250 mg, sentinel participants",dose-limiting events observed in a sentinel participant
same,effect on SBP and DBP (in words),SAD cohorts,"decreased SBP and DBP dose dependently, reversibly, and mostly asymptomatically"
same,safety and tolerability (in words),single and multiple dose oral administration to healthy participants,generally safe and well tolerated
